Test results taken from US8975264B2, “Compound acting as a cannabinoid receptor-1 inhibitor” (Amorepacific Corporation, priority 2010, dated 2015).

target: human CB1 (cannabinoid receptor 1) (Homo sapiens, UniProt P21554); experiment: CB1 receptor inhibition effect: calcium ion influx assay (Fluo-4 NW) in Chem-1 cells after 1 μM R-(+)-WIN55212-2; assay type: cell-based; details: Chem-1 cells stably expressing human CB1; agonist 1 μM R-(+)-WIN55212-2; compared with Examples 5 and 222
Method: When cells in which the cannabinoid receptor 1 (CB1) is stably expressed are treated with a CB1 receptor agonist, the CB1 receptor is activated and influx of calcium ions into the cells increases. CB1 receptor inhibition effect of a test compound can be evaluated by measuring the degree of calcium influx inhibition after treating with the test compound.
First, Chem-1 cells (Chemicon International, #HTS019C) in which human CB1 cDNA is expressed stably were seeded onto a 96-well cell culture plate at a density of ˜50,000 cells/well and incubated overnight in a 5% CO2 incubator at 37° C. The next day, the culture medium was discarded and the cells were cautiously washed once using an assay buffer (HBSS containing 20 mM HEPES and 2.5 mM probenecid) with 200 μL/well. Calcium ion influx was measured using an assay kit (Fluo-4 NW calcium assay kit: Molecular Probes™, #F36206) according to the manufacturer's instructions. The compounds of Examples of desired concentration to be measured were comprised to 0.5% DMSO. For control, only 0.5% DMSO was used without the compounds of Examples. Reaction time was 10 minutes. After treating the Chem-1 cells stably expressing the CB1 receptor with 1 μM R-(+)-WIN55212-2 (Sigma, #W102), a CB1 receptor agonist, calcium ion (Ca^2+) flux induced thereby was measured for 80 seconds using Flex Station 3 (Molecular Device, USA).
The difference in calcium ion concentration of the cells treated with the compounds of Examples or those treated with 1 μM R-(+)-WIN55212-2 was obtained from the difference of the maximum and minimum values during the 80 seconds. Then, % inhibition of the compounds for the CB1 receptor was calculated using the following equation. % inhibition={1−(ΔRFUcompound−ΔRFUBlank)/(ΔRFUControl−ΔRFUBlank)}×100 [Equation]
ΔRFU: maximum relative fluorescence units−minimum relative fluorescence units
ΔRFUCompound: difference in maximum and minimum RFUs in the well where the compounds of Examples dissolved in DMSO to a final concentration of 0.5% and 1 μM R-(+)-WIN55212-2 dissolved in DMSO to a final concentration of 0.5% were added
ΔRFUBlank: difference in maximum and minimum RFUs in the well to which only 1% DMSO was added
ΔRFUControl: difference in maximum and minimum RFUs in the well where 0.5% DMSO and 1 μM R-(+)-WIN55212-2 dissolved in DMSO to a final concentration of 0.5% were added

human CB1 (cannabinoid receptor 1), sequence (P21554 whole entry): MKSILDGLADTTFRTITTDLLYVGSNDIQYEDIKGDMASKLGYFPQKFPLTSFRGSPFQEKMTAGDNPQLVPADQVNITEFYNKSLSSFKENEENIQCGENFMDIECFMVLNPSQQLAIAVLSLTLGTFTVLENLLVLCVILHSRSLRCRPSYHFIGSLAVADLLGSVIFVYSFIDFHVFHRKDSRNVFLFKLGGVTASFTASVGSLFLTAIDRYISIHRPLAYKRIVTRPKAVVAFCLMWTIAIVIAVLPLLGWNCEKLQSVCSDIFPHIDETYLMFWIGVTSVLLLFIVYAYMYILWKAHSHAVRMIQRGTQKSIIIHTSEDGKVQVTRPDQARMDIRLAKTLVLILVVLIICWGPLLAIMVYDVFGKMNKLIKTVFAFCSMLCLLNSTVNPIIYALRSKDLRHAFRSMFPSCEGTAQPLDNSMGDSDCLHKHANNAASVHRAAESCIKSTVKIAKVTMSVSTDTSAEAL

Structure (SMILES) | CB1 receptor inhibition effect, (R)-isomers compared with (S)-isomers
COCc1nn2c(-c3ccc(F)cc3)cc(N3CCC[C@@H]3CO)nc2c1-c1ccc(OC)cc1 [Example 306] | lower CB1 receptor inhibition effect than the compounds of Examples 5 and 222

same assay, conditions: calcium ion influx in Chem-1 cells expressing human CB1, 1 μM R-(+)-WIN55212-2

Structure (SMILES) | IC50
Cc1nn2c(-c3cccc(C(F)(F)F)c3)cc(N3CCC[C@H]3CO)nc2c1-c1ccc2c(c1)OCO2 [Example 125] | 90 nM
CCCCc1nn2c(-c3cccc(C(F)(F)F)c3)cc(N3CCC[C@H]3CO)nc2c1-c1ccc(C)cc1 [Example 288] | 8 nM
CCOc1ccc(-c2c(C)nn3c(-c4cccc(C)c4)cc(N4CCC[C@H]4CO)nc23)cc1 [Example 158] | 210 nM
CCc1ccc(-c2c(C)nn3c(-c4cccc(Cl)c4)cc(N4CCC[C@H]4CO)nc23)cc1 [Example 174] | 220 nM
COCc1nn2c(-c3ccc(F)cc3)cc(N(C)CCO)nc2c1-c1ccc(Cl)cc1 [Example 260] | 7 nM
COc1ccc(-c2c(C)nn3c(-c4ccccc4F)cc(N4CCC[C@H]4CO)nc23)cc1 [Example 39] | 250 nM
COCc1nn2c(-c3cccc(C(F)(F)F)c3)cc(N3CCC[C@H]3CO)nc2c1-c1ccc(OC)cc1 [Example 221, (S)-{1-[2-methoxymethyl-7-(3-(trifluoromethyl)phenyl)-3-(4-methoxyphenyl)-pyrazolo[1,5-a]pyrimidin-5-yl]pyrrolidin-2-yl}methanol] | 7 nM
COc1ccc(-c2c(C)nn3c(-c4ccc(OC)cc4)cc(N4CCC[C@H]4CO)nc23)cc1 [Example 40] | 350 nM
CCc1ccc(-c2c(C)nn3c(-c4cccc(C(F)(F)F)c4)cc(N4CCC[C@H]4CO)nc23)cc1 [Example 129] | 73 nM
COc1ccc(-c2c(C)nn3c(-c4cccc(Cl)c4)cc(N4CCC[C@H]4CO)nc23)cc1 [Example 169, (S)-(1-(3-(4-methoxyphenyl)-7-(3-chlorophenyl)-2-methylpyrazolo[1,5-a]pyrimidin-5-yl)pyrrolidin-2-yl)methanol] | 33 nM
Cc1nn2c(-c3ccccc3)cc(N3CCC[C@H]3CO)nc2c1-c1ccc2c(c1)OCO2 [Example 56, (S)-(1-(3-(3,4-methylenedioxyphenyl)-7-(phenyl)-2-methylpyrazolo[1,5-a]pyrimidin-5-yl)pyrrolidin-2-yl)methanol] | 90 nM
COc1ccc(-c2c(C)nn3c(-c4cccc(C(F)(F)F)c4)cc(N4CCC[C@H]4CO)nc23)cc1 [Example 123] | 76 nM
COCc1nn2c(-c3cccc(C)c3)cc(N(C)CCO)nc2c1-c1ccc(Cl)cc1 [Example 262] | 18 nM
CCCOc1ccc(-c2c(C)nn3c(-c4ccc(F)cc4)cc(N4CCC[C@H]4CO)nc23)cc1 [Example 74] | 160 nM
Cc1nn2c(-c3ccccc3)cc(N3CCC[C@H]3CO)nc2c1-c1ccccc1 [Example 195] | 780 nM
CCCOc1ccc(-c2c(C)nn3c(-c4ccc(F)cc4)cc(N4CCC[C@H]4CO)nc23)cc1F [Example 100] | 310 nM
Cc1nn2c(-c3cccc(C(F)(F)F)c3)cc(N3CCC[C@H]3CO)nc2c1-c1ccc(F)c(F)c1 [Example 134] | 190 nM

Structure (SMILES) | IC50
Cc1nn2c(-c3cccc(C(F)(F)F)c3)cc(N3CCC[C@H]3CO)nc2c1-c1ccc(Cl)cc1 [Example 9] | 120 nM
CCCCc1nn2c(-c3cccc(C)c3)cc(N3CCC[C@H]3CO)nc2c1-c1ccc(C)cc1 [Example 289] | 30 nM
COCc1nn2c(-c3cccc(C)c3)cc(N3CCC[C@H]3CO)nc2c1-c1ccc(OC)cc1 [Example 227] | 48 nM
CCOCc1nn2c(-c3cccc(C(F)(F)F)c3)cc(N(C)CCO)nc2c1-c1ccc2c(c1)OCO2 [Example 253] | 190 nM
CCOCc1nn2c(-c3ccc(F)cc3)cc(N(C)CCO)nc2c1-c1ccc(OC)cc1 [Example 245] | 440 nM
Cc1cccc(-c2cc(N3CCC[C@H]3CO)nc3c(-c4ccc(C(F)F)cc4)c(C)nn23)c1 [Example 160] | 110 nM
CCCOc1ccc(-c2c(C)nn3c(-c4cccc(F)c4)cc(N4CCC[C@H]4CO)nc23)cc1 [Example 119] | 450 nM
Cc1nn2c(-c3cccc(Cl)c3)cc(N3CCC[C@H]3CO)nc2c1-c1ccc2c(c1)OCO2 [Example 172] | 190 nM
CCOCc1nn2c(-c3cccc(F)c3)cc(N(C)CCO)nc2c1-c1ccc(Cl)cc1 [Example 243] | 7 nM
CSc1ccc(-c2c(C)nn3c(-c4cccc(C)c4)cc(N4CCC[C@H]4CO)nc23)cc1 [Example 162] | 110 nM
CCOCc1nn2c(-c3cccc(C)c3)cc(N3CCC[C@H]3CO)nc2c1-c1ccc(OC)cc1 [Example 220] | 30 nM
CCOCc1nn2c(-c3cccc(C(F)(F)F)c3)cc(N3CCC[C@H]3CO)nc2c1-c1ccc(OC)cc1 [Example 212] | 26 nM
CCCOc1ccc(-c2c(C)nn3c(-c4cccc(C(F)(F)F)c4)cc(N4CCC[C@H]4CO)nc23)cc1 [Example 133] | 280 nM
COc1ccc(-c2c(C)nn3c(-c4cccc(C)c4)cc(N4CCC[C@H]4CO)nc23)cc1 [Example 157, (S)-(1-(3-(4-methoxyphenyl)-7-(3-methylphenyl)-2-methylpyrazolo[1,5-a]pyrimidin-5-yl)pyrrolidin-2-yl)methanol] | 210 nM
Cc1cccc(-c2cc(N3CCC[C@H]3CO)nc3c(-c4ccc(Cl)cc4)c(C)nn23)c1 [Example 12] | 210 nM
CCOCc1nn2c(-c3cccc(Cl)c3)cc(N(C)CCO)nc2c1-c1ccc(OC)cc1 [Example 248] | 600 nM

The remaining lines, values ahead:

IC50 | Structure (SMILES)
170 nM | COc1ccc(-c2c(C)nn3c(-c4ccc(F)cc4)cc(N4CCC[C@H]4CO)nc23)cc1 [Example 64, (S)-(1-(3-(4-methoxyphenyl)-7-(4-fluorophenyl)-2-methylpyrazolo[1,5-a]pyrimidin-5-yl)pyrrolidin-2-yl)methanol]
110 nM | Cc1nn2c(-c3ccc(F)cc3F)cc(N3CCC[C@H]3CO)nc2c1-c1ccc(Cl)cc1 [Example 22]
350 nM | COc1ccc(-c2c(C)nn3c(-c4ccc(C)cc4)cc(N4CCC[C@H]4CO)nc23)cc1 [Example 42]
4 nM | COCc1nn2c(-c3cccc(F)c3)cc(N3CCC[C@H]3CO)nc2c1-c1ccc(Cl)cc1 [Example 232]
310 nM | CCc1ccc(-c2c(C)nn3c(-c4ccc(C)cc4)cc(N4CCC[C@H]4CO)nc23)cc1 [Example 182]
270 nM | Cc1ccc(-c2cc(N3CCC[C@H]3CO)nc3c(-c4ccc(Cl)cc4)c(C)nn23)cc1 [Example 11]
53 nM | Cc1ccc(-c2c(C)nn3c(-c4ccc(F)c(F)c4)cc(N4CCC[C@H]4CO)nc23)cc1 [Example 26, (S)-(1-(3-(4-methylphenyl)-7-(3,4-difluorophenyl)-2-methylpyrazolo[1,5-a]pyrimidin-5-yl)pyrrolidin-2-yl)methanol]
93 nM | Cc1nn2c(-c3cccc(F)c3)cc(N3CCC[C@H]3CO)nc2c1-c1ccc(Cl)cc1 [Example 3]
210 nM | C=Cc1ccc(-c2c(C)nn3c(-c4ccc(F)cc4)cc(N4CCC[C@H]4CO)nc23)cc1 [Example 71]
46 nM | Cc1ccc(-c2c(C)nn3c(-c4cccc(C)c4)cc(N4CCC[C@H]4CO)nc23)cc1 [Example 156]
140 nM | Cc1ccc(-c2c(C)nn3c(-c4ccc(Cl)cc4)cc(N4CCC[C@H]4CO)nc23)cc1 [Example 32]
100 nM | Cc1ccc(-c2c(C)nn3c(-c4ccc(F)cc4)cc(N4CCC[C@H]4CO)nc23)cc1F [Example 79]
440 nM | Cc1ccc(-c2cnn3c(-c4cccc(F)c4)cc(N4CCC[C@H]4CO)nc23)cc1 [Example 270]
230 nM | Cc1ccc(-c2cnn3c(-c4cc(F)cc(F)c4)cc(N4CCC[C@H]4CO)nc23)cc1 [Example 273]
41 nM | Cc1ccc(-c2c(C)nn3c(-c4ccc(F)cc4)cc(N4CCC[C@H]4CO)nc23)cc1 [Example 63, (S)-(1-(3-(4-methylphenyl)-7-(4-fluorophenyl)-2-methylpyrazolo[1,5-a]pyrimidin-5-yl)pyrrolidin-2-yl)methanol]
39 nM | COc1cccc(-c2cc(N3CCC[C@H]3CO)nc3c(-c4ccc(C)cc4)c(C)nn23)c1 [Example 25, (S)-(1-(3-(4-methylphenyl)-7-(3-methoxyphenyl)-2-methylpyrazolo[1,5-a]pyrimidin-5-yl)pyrrolidin-2-yl)methanol]
100 nM | Cc1ccc(-c2c(C)nn3c(-c4ccc(F)c(Cl)c4)cc(N4CCC[C@H]4CO)nc23)cc1 [Example 36]
45 nM | Cc1ccc(-c2c(C)nn3c(-c4cccc(C(F)(F)F)c4)cc(N4CCC[C@H]4CO)nc23)cc1 [Example 122]

same assay, conditions: compound at 1 μM; calcium ion influx in Chem-1 cells expressing human CB1, 1 μM R-(+)-WIN55212-2

inhibition at 1 µM | Structure (SMILES)
< 5% | COCc1nn2c(-c3ccc(F)cc3)cc(N3CCC[C@@H]3CO)nc2c1-c1ccc(OC)cc1 [Example 306]
